Test results from ChEMBL document CHEMBL4002629, “Design, synthesis and biological evaluation of novel 3-substituted 4-anilino-coumarin derivatives as antitumor agents” (Bioorg Med Chem Lett, 2017).
Active and inactive are the calls of the source. No cut-off for these calls is given here.

Legend:
MCF7 [1] = test: Antiproliferative activity against human MCF7 cells after 48 hrs by MTT assay; format: functional, cell-based; conditions: MCF7, 48 h
HepG2 = test: Antiproliferative activity against human HepG2 cells after 48 hrs by MTT assay; format: functional, cell-based; conditions: HepG2, 48 h
HCT-116 = test: Antiproliferative activity against human HCT116 cells after 48 hrs by MTT assay; format: functional, cell-based; conditions: HCT-116, 48 h
PANC-1 = test: Antiproliferative activity against human PANC1 cells after 48 hrs by MTT assay; format: functional, cell-based; conditions: PANC-1, 48 h
MCF7 [2] = test: Cell cycle arrest in human MCF7 cells assessed as accumulation at G0/G1 phase at 5 uM after 48 hrs by propidium iodide staining-based flow cytometric method (reference value: 55.56 +/- 0.91%); format: functional
MCF7 [3] = test: Cell cycle arrest in human MCF7 cells assessed as accumulation at G2/M phase at 5 uM after 48 hrs by propidium iodide staining-based flow cytometric method (reference value: 24.16 +/- 2.29%); format: functional
MCF7 [4] = test: Cell cycle arrest in human MCF7 cells assessed as accumulation at G0/G1 phase at 10 uM after 48 hrs by propidium iodide staining-based flow cytometric method (reference value: 55.56 +/- 0.91%); format: functional
MCF7 [5] = test: Cell cycle arrest in human MCF7 cells assessed as accumulation at G2/M phase at 10 uM after 48 hrs by propidium iodide staining-based flow cytometric method (reference value: 24.16 +/- 2.29%); format: functional
MCF7 [6] = test: Cell cycle arrest in human MCF7 cells assessed as accumulation at G0/G1 phase at 15 uM after 48 hrs by propidium iodide staining-based flow cytometric method (reference value: 55.56 +/- 0.91%); format: functional
MCF7 [7] = test: Cell cycle arrest in human MCF7 cells assessed as accumulation at G2/M phase at 15 uM after 48 hrs by propidium iodide staining-based flow cytometric method (reference value: 24.16 +/- 2.29%); format: functional
MCF7 [8] = test: Induction of apoptosis in human MCF7 cells assessed as cell distortion at 5 to 15 uM after 24 hrs by Hoechst 33258 staining-based inverted microscopy; format: functional
MCF7 [9] = test: Induction of apoptosis in human MCF7 cells assessed as membrane blebbing at 5 to 15 uM after 24 hrs by Hoechst 33258 staining-based inverted microscopy; format: functional, cell-based
MCF7 [10] = test: Induction of apoptosis in human MCF7 cells assessed as membrane shrinkage at 5 to 15 uM after 24 hrs by Hoechst 33258 staining-based inverted microscopy; format: functional, cell-based
MCF7 [11] = test: Induction of apoptosis in human MCF7 cells assessed as cell rounding up at 5 to 15 uM after 24 hrs by Hoechst 33258 staining-based inverted microscopy; format: functional
MCF7 [12] = test: Induction of apoptosis in human MCF7 cells assessed as early apoptotic cells at 5 uM after 48 hrs by annexin V-propidium iodide staining-based flow cytometry (reference value: 3.2%); format: functional
MCF7 [13] = test: Induction of apoptosis in human MCF7 cells assessed as late apoptotic cells at 5 uM after 48 hrs by annexin V-propidium iodide staining-based flow cytometry (reference value: 0.1%); format: functional
MCF7 [14] = test: Induction of apoptosis in human MCF7 cells assessed as necrotic cells at 5 uM after 48 hrs by annexin V-propidium iodide staining-based flow cytometry (reference value: 0.3%); format: functional
MCF7 [15] = test: Induction of apoptosis in human MCF7 cells assessed as viable cells at 5 uM after 48 hrs by annexin V-propidium iodide staining-based flow cytometry (reference value: 96.3%); format: functional; conditions: MCF7, 48 h, read-out: Activity
MCF7 [16] = test: Induction of apoptosis in human MCF7 cells assessed as early apoptotic cells at 10 uM after 48 hrs by annexin V-propidium iodide staining-based flow cytometry (reference value: 3.2%); format: functional
MCF7 [17] = test: Induction of apoptosis in human MCF7 cells assessed as late apoptotic cells at 10 uM after 48 hrs by annexin V-propidium iodide staining-based flow cytometry (reference value: 0.1%); format: functional
MCF7 [18] = test: Induction of apoptosis in human MCF7 cells assessed as necrotic cells at 10 uM after 48 hrs by annexin V-propidium iodide staining-based flow cytometry (reference value: 0.3%); format: functional
MCF7 [19] = test: Induction of apoptosis in human MCF7 cells assessed as viable cells at 10 uM after 48 hrs by annexin V-propidium iodide staining-based flow cytometry (reference value: 96.3%); format: functional; conditions: MCF7, 48 h, read-out: Activity
MCF7 [20] = test: Induction of apoptosis in human MCF7 cells assessed as early apoptotic cells at 15 uM after 48 hrs by annexin V-propidium iodide staining-based flow cytometry (reference value: 3.2%); format: functional
MCF7 [21] = test: Induction of apoptosis in human MCF7 cells assessed as late apoptotic cells at 15 uM after 48 hrs by annexin V-propidium iodide staining-based flow cytometry (reference value: 0.1%); format: functional
MCF7 [22] = test: Induction of apoptosis in human MCF7 cells assessed as necrotic cells at 15 uM after 48 hrs by annexin V-propidium iodide staining-based flow cytometry (reference value: 0.3%); format: functional
MCF7 [23] = test: Induction of apoptosis in human MCF7 cells assessed as viable cells at 15 uM after 48 hrs by annexin V-propidium iodide staining-based flow cytometry (reference value: 96.3%); format: functional; conditions: MCF7, 48 h, read-out: Activity
HUVEC = test: Antiproliferative activity against HUVEC after 48 hrs by MTT assay; format: cell-based; conditions: Homo sapiens
[24] = Selectivity index, ratio of IC50 for HUVEC to IC50 for human MCF7 cells
[25] = Selectivity index, ratio of IC50 for HUVEC to IC50 for human HepG2 cells
[26] = Selectivity index, ratio of IC50 for HUVEC to IC50 for human HCT116 cells
[27] = Selectivity index, ratio of IC50 for HUVEC to IC50 for human PANC1 cells
MCF7 [28] = test: Induction of apoptosis in human MCF7 cells after 48 hrs by annexin V-propidium iodide staining-based flow cytometry; format: functional, cell-based

SMILES: COc1ccc2oc(=O)c(C(=O)C(F)(F)F)c(Nc3ccc4c(c3)OCO4)c2c1
- IC50 (MCF7 [1]): 16.6 µM
- IC50 (HepG2): 5.45 µM
- IC50 (HCT-116): 4.42 µM
- IC50 (PANC-1): 5.16 µM
- Activity (MCF7 [2]): 45.12%
- Activity (MCF7 [3]): 26.13%
- Activity (MCF7 [4]): 30.15%
- Activity (MCF7 [5]): 41.93%
- Activity (MCF7 [6]): 21.93%
- Activity (MCF7 [7]): 63.06%
- Activity (MCF7 [8]): Active
- Activity (MCF7 [9]): Active
- Activity (MCF7 [10]): Active
- Activity (MCF7 [11]): Active
- Activity (MCF7 [12]): 16.3%
- Activity (MCF7 [13]): 1.3%
- Activity (MCF7 [14]): 1.1%
- viability at 5 µM (MCF7 [15]): 81.3%
- Activity (MCF7 [16]): 20.2%
- Activity (MCF7 [17]): 1.9%
- Activity (MCF7 [18]): 1.6%
- viability at 10 µM (MCF7 [19]): 76.3%
- Activity (MCF7 [20]): 32.1%
- Activity (MCF7 [21]): 4.7%
- Activity (MCF7 [22]): 3.3%
- viability at 15 µM (MCF7 [23]): 59.9%
- IC50 (HUVEC): 26.3 µM
- Ratio IC50 [24]: 1.59
- Ratio IC50 [25]: 4.82
- Ratio IC50 [26]: 5.94
- Ratio IC50 [27]: 5.09
- Activity (MCF7 [28]): Dose-dependent effect

SMILES: COc1ccc(-c2c(Nc3ccc(C)cc3)c3ccccc3oc2=O)cc1
- IC50 (MCF7 [1]): 65.3 µM
- IC50 (HepG2): 59.4 µM
- IC50 (HCT-116): 64.8 µM
- IC50 (PANC-1): 66.1 µM

SMILES: COc1ccc(-c2c(Nc3ccc4c(c3)OCO4)c3ccc(OC)cc3oc2=O)cc1
- IC50 (MCF7 [1]): > 100 µM
- IC50 (HepG2): > 100 µM

SMILES: COc1ccc(Nc2c(-c3ccc(OC)cc3)c(=O)oc3cc(OC)ccc23)cc1
- IC50 (MCF7 [1]): 39.2 µM
- IC50 (HepG2): 39.6 µM
- IC50 (HCT-116): 35.1 µM
- IC50 (PANC-1): 41 µM

SMILES: COc1ccc2oc(=O)c(C(=O)C(F)(F)F)c(Nc3cc(OC)c(OC)c(OC)c3)c2c1
- IC50 (MCF7 [1]): 15 µM
- IC50 (HepG2): 12.3 µM
- IC50 (HCT-116): 19.5 µM
- IC50 (PANC-1): 23.8 µM

SMILES: COc1ccc(-c2c(Nc3ccc(C)c(O)c3)c3ccccc3oc2=O)cc1
- IC50 (MCF7 [1]): 12.1 µM
- IC50 (HepG2): 10.2 µM
- IC50 (HCT-116): 12.3 µM
- IC50 (PANC-1): 9.75 µM

SMILES: COc1ccc(Nc2c(-c3ccc(OC)cc3)c(=O)oc3cc(O)ccc23)cc1
- IC50 (MCF7 [1]): > 100 µM
- IC50 (HepG2): 78.8 µM

SMILES: COc1ccc(-c2c(Nc3ccc(F)cc3)c3ccc(OC)cc3oc2=O)cc1
- IC50 (MCF7 [1]): > 100 µM
- IC50 (HepG2): > 100 µM

SMILES: COc1ccc2oc(=O)c(C(=O)C(F)(F)F)c(Nc3ccc(C)c(O)c3)c2c1
- IC50 (MCF7 [1]): 20.1 µM
- IC50 (HepG2): 6.71 µM
- IC50 (HCT-116): 4.62 µM
- IC50 (PANC-1): 5.62 µM
- IC50 (HUVEC): 29.4 µM
- Ratio IC50 [24]: 1.46
- Ratio IC50 [25]: 4.39
- Ratio IC50 [26]: 6.37
- Ratio IC50 [27]: 5.23

SMILES: COc1ccc(-c2c(Nc3ccc4c(c3)OCO4)c3ccc(O)cc3oc2=O)cc1
- IC50 (MCF7 [1]): 89.5 µM
- IC50 (HepG2): 79 µM
- IC50 (HCT-116): 41.2 µM
- IC50 (PANC-1): 48.2 µM

SMILES: COc1ccc(-c2c(Nc3cccc(C(F)(F)F)c3)c3ccccc3oc2=O)cc1
- IC50 (MCF7 [1]): 21.6 µM
- IC50 (HepG2): 66.4 µM
- IC50 (HCT-116): 55.7 µM
- IC50 (PANC-1): 49.1 µM

SMILES: COc1ccc(-c2c(Nc3cccc(C(F)(F)F)c3)c3ccc(O)cc3oc2=O)cc1
- IC50 (MCF7 [1]): 49.1 µM
- IC50 (HepG2): 53.6 µM
- IC50 (HCT-116): 55.9 µM
- IC50 (PANC-1): 67.2 µM

SMILES: COc1ccc2c(Nc3ccc(F)cc3)c(C(=O)C(F)(F)F)c(=O)oc2c1
- IC50 (MCF7 [1]): 9.74 µM
- IC50 (HepG2): 8.26 µM
- IC50 (HCT-116): 11.7 µM
- IC50 (PANC-1): 12.2 µM

SMILES: COc1ccc(-c2c(Nc3ccc(C)c(O)c3)c3ccc(OC)cc3oc2=O)cc1
- IC50 (MCF7 [1]): 34.4 µM
- IC50 (HepG2): 22.5 µM
- IC50 (HCT-116): 26.5 µM
- IC50 (PANC-1): 31.3 µM

SMILES: COc1ccc(-c2c(Nc3ccc(NC(C)=O)cc3)c3ccc(OC)cc3oc2=O)cc1
- IC50 (MCF7 [1]): 85.8 µM
- IC50 (HepG2): > 100 µM

SMILES: COc1ccc(-c2c(Nc3ccc(C)cc3)c3ccc(O)cc3oc2=O)cc1
- IC50 (MCF7 [1]): 85.5 µM
- IC50 (HepG2): 88.3 µM

SMILES: COc1ccc(-c2c(Nc3ccc(C)cc3)c3ccc(OC)cc3oc2=O)cc1
- IC50 (MCF7 [1]): 66.9 µM
- IC50 (HepG2): 74.4 µM
- IC50 (HCT-116): 82.4 µM
- IC50 (PANC-1): 76.5 µM

SMILES: COc1ccc2oc(=O)c(C(=O)C(F)(F)F)c(Nc3ccc(F)cc3)c2c1
- IC50 (MCF7 [1]): > 100 µM
- IC50 (HepG2): > 100 µM
